The values that follow come from US20150089682A1, “ALS Inhibitor Herbicide Tolerant B. Napus Mutants” (priority 2012, published 2015).

Each structure is given as a SMILES string. Bounds are passed on as bounds.

In assay [1] the target is T1, Arabidopsis thaliana P197S-mutant ALS (Arabidopsis thaliana, UniProt P17597, E575Q/P197S).
T1 construct: vector-encoded N-terminal fusion of pET-32a(+) (Trx/His/S tag by own knowledge); made in house; host or cells: Escherichia coli AD494
The assay is described as follows: biochemical. As to conditions: for IC50: read-out: pI50 P197S (converted); for Resistance Factor P197S: relative to WT, from measured pI50. How it is done: (§1) Bacteria were grown at 37° C. in LB-medium containing 100 mg/1 carbenicillin and 25 mg/1 canamycin, induced with 1 mM isopropyl-β-D-thiogalactopyranoside at an OD600 of 0.6, cultivated for 16 hours at 18° C. and harvested by centrifugation. Bacterial pellets were resusupended in 100 mM sodium phosphate buffer pH 7.0 containing 0.1 mM thiamine-pyrophosphate, 1 mM MgCl2, and 1 μM FAD at a concentration of 1 gram wet weight per 25 ml of buffer and disrupted by sonification. The crude protein extract obtained after centrifugation was used for ALS activity measurements.
(§2) Assays were initiated by adding enzyme and terminated after 75 min incubation at 30° C. by the addition to 40 μl 0.5 M H2SO4. […] Reaction velocities were tiffed to the Michalis-Menten equation with the XLFit curve fitting program.

Assay [2] concerns the target T2, Arabidopsis thaliana W574L-mutant ALS (Arabidopsis thaliana, UniProt P17597, E575Q/W574L).
T2 construct: vector-encoded N-terminal fusion of pET-32a(+) (Trx/His/S tag by own knowledge); made in house; host or cells: Escherichia coli AD494
The assay is described as follows: biochemical. As to conditions: for IC50: read-out: pI50 W574L (converted); for Resistance Factor W574L: relative to WT, from measured pI50. How it is done: as §1, §2

Assay [3] concerns the target T3, Arabidopsis thaliana wild-type ALS (Arabidopsis thaliana, UniProt P17597, E575Q).
T3 construct: vector-encoded N-terminal fusion of pET-32a(+) (Trx/His/S tag by own knowledge); made in house; host or cells: Escherichia coli AD494
The assay is described as follows: biochemical. As to conditions: measured, crude extract of E. coli expressed enzyme; for IC50: read-out: pI50 WT (converted). The protocol:
as §1, §2

In assay [4] the target is T4, Arabidopsis thaliana S653N-mutant ALS (Arabidopsis thaliana, UniProt P17597, E575Q/S653N).
T4 construct: vector-encoded N-terminal fusion of pET-32a(+) (Trx/His/S tag by own knowledge); made in house; host or cells: Escherichia coli AD494
The assay is described as follows: biochemical. The settings on record: for IC50: read-out: pI50 S653N (converted); for Resistance Factor S653N: relative to WT, from measured pI50. How it is done:
as §1, §2

Assay [5] deals with T5, mixture of P197S and W574L ALS enzymes (Arabidopsis thaliana, UniProt P17597).
T5 construct: crude E. coli extract was used
It is filed as biochemical. As to conditions: for pI50 P197S & W574L: calculated for a mixture of equal activities of the two enzymes, pI50=3.0 used where measured <4; for Resistance Factor P197S & W574L: relative to WT, calculated. How it is done:
as §2
(§3) To characterize the response of a mixture of two different ALS enzymes to a given ALS inhibitor the following assumptions were made: • a inhibition is competitive and reversible • b. in the absence of inhibitor, equal activities of the ALS (mutant) enzymes 1 and 2 are present
(§4) Using experimentally determined pI50-values for various ALS-inhibiting herbicides, enzyme activities at different inhibitor concentrations were calculated (see Theory) for each ALS enzyme. Total ALS activity at any given inhibitor concentration is the sum of the activity of (mutant) enzyme 1 and (mutant) enzyme 2. If the experimentally determined pI50-value was <4, pI50=3.0 was used for the calculations. If the calculated pI50-value was 3.0, the pI50 was redefined as <4.

The target of assay [6] is T6, mixture of S653N and W574L ALS enzymes (Arabidopsis thaliana, UniProt P17597).
T6 construct: crude E. coli extract was used
It is filed as biochemical. The settings on record: for pI50 S653N & W574L: calculated for a mixture of equal activities of the two enzymes, pI50=3.0 used where measured <4; for Resistance Factor S653N & W574L: relative to WT, calculated. The protocol: as §2, §3, §4

The test system of assay [7] is spring oilseed rape variety ABILITY. The assay is described as follows: Herbicide tolerance in the field, visible phytotoxicity. The class given is in vivo, Brassica napus. As to conditions: ABILITY, field, 18 days after application, 0%=no phytotoxic effects, 100%=all plants killed. From the text:
(§5) Seeds of spring oilseed rape homozygous for HETO108 and HETO121 were sown in a field according to typical practical agricultural methods. The registered spring oilseed rape variety ABILITY served as a comparison. All plants were cultivated up to BBCH stage 14 (four true leaves of the oilseed rape plants). Afterwards, the herbicides mentioned in table 2 have been applied to the oilseed rape plants by using specific spray equipment for small plot applications. The water amount used was 200 L/ha.

The subject of assay [8] is spring oilseed rape homozygous for HETO108 and HETO121. The description is as above. The settings on record: HETO108-HETO121, field, 18 days after application, 0%=no phytotoxic effects, 100%=all plants killed. It is filed as in vivo, Brassica napus.
Description: as §5

Setting [9] is: measured, crude extract of E. coli expressed enzyme.
Where [10] appears, read: Brassica napus, topical, 432 h, AI dose rate 40 gai/ha, read-out: % phytotox.
The mark [11] stands for this setting: Brassica napus, topical, 432 h, AI dose rate 30 gai/ha, read-out: % phytotox.
Setting [12] is: Brassica napus, topical, 432 h, AI dose rate 60 gai/ha, read-out: % phytotox.
Where [13] appears, read: Brassica napus, topical, 432 h, AI dose rate 12.5 gai/ha, read-out: % phytotox.
[14] abbreviates: Brassica napus, topical, 432 h, AI dose rate 10 gai/ha, read-out: % phytotox.
Where [15] appears, read: Brassica napus, topical, 432 h, AI dose rate 5 gai/ha, read-out: % phytotox.

`COCc1cnc(C2=NC(C)(C(C)C)C(=O)N2)c(C(=O)O)c1` (stereo not shown) [Imazamox, imazamox]: the IC50 in assay [1] (setting [9]) was 5010 nM; in assay [2] (setting [9]), greater than 100000 nM; in assay [3], 3980 nM; in assay [4] (setting [9]) it was greater than 100000 nM. Also, the “Resistance Factor P197S” value in assay [1] was found to be 1. Moreover, the “Resistance Factor W574L” value in assay [2] was greater than 25. Further, the “Resistance Factor S653N” value in assay [4] is given as greater than 25. In addition, the “pI50 P197S & W574L” value in assay [5] is listed as 4.1. For the same compound, the “Resistance Factor P197S & W574L” value in assay [5] is 20. Also, in assay [6], the “pI50 S653N & W574L” value is reported as less than 4. The “Resistance Factor S653N & W574L” value in assay [6] is recorded as greater than 25. In addition, the pest or weed control at 40 g/ha worked out at 99% in assay [7] (setting [10]) and 19% in assay [8] (setting [10]).

As to `COc1cc(OC)n2nc(S(=O)(=O)Nc3c(Cl)ccc(C)c3Cl)nc2n1` [Metosulam, metosulam], the IC50 was 1580 nM in assay [1] (setting [9]), 20000 nM in assay [2] (setting [9]), 2.51 nM in assay [3] and 6.31 nM in assay [4] (setting [9]). Further, the “Resistance Factor P197S” value in assay [1] is 631. In addition, in assay [2], the “Resistance Factor W574L” value stood at 7943. The “Resistance Factor S653N” value in assay [4] turned out to be 3. Also, in assay [5], the “pI50 P197S & W574L” value is 5.2. Also, the “Resistance Factor P197S & W574L” value in assay [5] is recorded as 2512. The “pI50 S653N & W574L” value in assay [6] is listed as 6.4. Besides, the “Resistance Factor S653N & W574L” value in assay [6] is recorded as 158. For the same compound, the pest or weed control at 30 g/ha in assay [7] (setting [11]) is 100%; in assay [8] (setting [11]), 35%.

For `COc1cc(OC)nc(NC(=O)NS(=O)(=O)c2ncccc2C(=O)N(C)C)n1` [Nicosulfuron, nicosulfuron], the IC50 in assay [1] (setting [9]) is 1000 nM; in assay [2] (setting [9]), greater than 100000 nM; in assay [3], 126 nM; in assay [4] (setting [9]), 2510 nM. The “Resistance Factor P197S” value in assay [1] was determined as 8. In addition, in assay [2], the “Resistance Factor W574L” value is reported as greater than 794. Further, the “Resistance Factor S653N” value in assay [4] amounted to 20. Moreover, the “pI50 P197S & W574L” value in assay [5] is 4.5. Moreover, the “Resistance Factor P197S & W574L” value in assay [5] was 251. In addition, the “pI50 S653N & W574L” value in assay [6] is recorded as 4.3. For the same compound, the “Resistance Factor S653N & W574L” value in assay [6] was 398. In addition, the pest or weed control at 60 g/ha stood at 100% in assay [7] (setting [12]) and 55% in assay [8] (setting [12]).

On to `COc1cc(OC)n2nc(NS(=O)(=O)c3c(C(F)(F)F)ccnc3OC)nc2n1` [Pyroxsulam, pyroxsulam], for which the “pI50 P197S” value in assay [1] (setting [9]) was 6.2. The “Resistance Factor P197S” value in assay [1] came to 251. In addition, in assay [2] (setting [9]), the “pI50 W574L” value is on record as less than 4. Moreover, in assay [2], the “Resistance Factor W574L” value is greater than 39810. In assay [3], the “pI50 WT” value is on record as 8.6. Also, the “pI50 S653N” value in assay [4] (setting [9]) stood at 6.8. Moreover, the “Resistance Factor S653N” value in assay [4] is 63. In assay [5], the “pI50 P197S & W574L” value was 4.8 and the “Resistance Factor P197S & W574L” value is 6310. Moreover, in assay [6], the “pI50 S653N & W574L” value is 5.3 and the “Resistance Factor S653N & W574L” value was 1995. In assay [7] (AI dose rate 50 gai/ha), the “% phytotox” value turned out to be 99%. In assay [8] (AI dose rate 50 gai/ha), the “% phytotox” value was 0%.

Regarding `CCS(=O)(=O)c1cccnc1S(=O)(=O)NC(=O)Nc1nc(OC)cc(OC)n1` [Rimsulfuron, rimsulfuron], the IC50 was 398 nM in assay [1] (setting [9]), 10000 nM in assay [2] (setting [9]), 31.6 nM in assay [3] and 20 nM in assay [4] (setting [9]). In assay [1], the “Resistance Factor P197S” value came out at 13. Further, the “Resistance Factor W574L” value in assay [2] stood at 316. In addition, the “Resistance Factor S653N” value in assay [4] was determined as 1. Moreover, the “pI50 P197S & W574L” value in assay [5] is 5.7. Further, in assay [5], the “Resistance Factor P197S & W574L” value is 63. Besides, the “pI50 S653N & W574L” value in assay [6] is 6.3. Moreover, the “Resistance Factor S653N & W574L” value in assay [6] is 16. Besides, the values for the pest or weed control at 12.5 g/ha in assay [7] (setting [13]) and in assay [8] (setting [13]) were 100% and 68%, respectively.

With `CCS(=O)(=O)c1nc2ccccn2c1S(=O)(=O)NC(=O)Nc1nc(OC)cc(OC)n1` [Sulfosulfuron, sulfosulfuron], the IC50 was 39800 nM in assay [1] (setting [9]), greater than 100000 nM in assay [2] (setting [9]), 25.1 nM in assay [3] and 126 nM in assay [4] (setting [9]). For the same compound, in assay [1], the “Resistance Factor P197S” value amounted to 1585. In addition, the “Resistance Factor W574L” value in assay [2] was greater than 3981. For the same compound, the “Resistance Factor S653N” value in assay [4] was found to be 5. The “pI50 P197S & W574L” value in assay [5] is reported as 3.6. Moreover, the “Resistance Factor P197S & W574L” value in assay [5] is listed as 10000. Further, in assay [6], the “pI50 S653N & W574L” value was 5.4. Also, the “Resistance Factor S653N & W574L” value in assay [6] was 158. Further, the pest or weed control at 10 g/ha in assay [7] (setting [14]) was 100%; in assay [8] (setting [14]), 3%.

On to `COC(=O)c1sccc1S(=O)(=O)NC(=O)Nc1nc(C)nc(OC)n1` [Thifensulfuron-Methyl, thifensulfuron-methyl], for which the IC50 in assay [1] (setting [9]) was 7940 nM; in assay [2] (setting [9]), 63100 nM; in assay [3] it was 39.8 nM; in assay [4] (setting [9]), 200 nM. For the same compound, the “Resistance Factor P197S” value in assay [1] was 200. Also, the “Resistance Factor W574L” value in assay [2] is 1585. In assay [4], the “Resistance Factor S653N” value was determined as 5. Also, in assay [5], the “pI50 P197S & W574L” value is listed as 4.6. For the same compound, the “Resistance Factor P197S & W574L” value in assay [5] was 631. Further, in assay [6], the “pI50 S653N & W574L” value was 5.4. Besides, the “Resistance Factor S653N & W574L” value in assay [6] is recorded as 100. The pest or weed control at 5 g/ha stood at 85% in assay [7] (setting [15]) and 0% in assay [8] (setting [15]).
